Patent US7919577B2, “Adrenocorticotropic hormone analogs and related methods” (Colorado Seminary, priority 2004, dated 2011)

How the values were obtained:
[1] = tested on: dexamethasone-suppressed male FVB/N mice; test: in vivo Serum Corticosteroid Inhibition Assay (Example 2); parameters: species or system mouse; conditions: mACTH(1-24) alone 120 minutes after dexamethasone, blood one hour later
Method: The in vivo Serum Corticosteroid Inhibition Assay can include sequential administration of the test compound and the corticosteroid-producing compound by the following steps: first, an agent to suppress endogenous ACTH production was administered to a mouse subject, such as an intraperitoneal injection of dexamethasone; second, after waiting a suitable period of time for suppression of endogenous ACTH production (e.g., 1.5-2.0 hours), a test compound was administered to the mouse by a suitable method, such as intraperitoneal injection; third, after waiting a suitable period of time (e.g., 1 hour) for action of the test compound, a compound with corticosteroid-producing activity can be administered to the mouse by a suitable method, such as intraperitoneal injection; and fourth, after waiting a suitable period of time for the biological activity of both administered compounds to occur (e.g., 1 hour), a blood sample was taken from the subject and the level of serum corticosterone was determined by a suitable method, such as a competitive radioimmunoassay using ^125I RIA kit (ICN, Costa Mesa, Calif.). Optionally, steps two and three can be reversed (administering the corticosteroid-producing compound first, followed by administration of the test compound). The in vivo Serum Corticosteroid Inhibition Assay can also include co-administration of the test compound and the corticosteroid-producing compound by the following steps: first, an agent to suppress endogenous ACTH production was administered to a mouse subject, such as an intraperitoneal injection of dexamethasone; second, after waiting a suitable period of time for suppression of endogenous ACTH production (e.g., 1.5-2.0 hours), the corticosteroid-producing compound and a test compound were co-administered to the mouse by a suitable method, such as intraperitoneal injection; and third, after waiting a suitable period of time for the biological activity of both administered compounds to occur (e.g., 1 hour), a blood sample was taken from the subject and the level of serum corticosterone was determined by a suitable method, such as a competitive radioimmunoassay using ^125I RIA kit (ICN, Costa Mesa, Calif.). Also, in some embodiments, the first step in any in vivo Serum Corticosteroid Inhibition Assay can be replaced by a measurement of the initial endogenous corticosteroid or corticosteroid level in the blood of the subject in the manner of step four, instead of administering the agent to suppress ACTH production. Example 2 describes murine in vivo Serum Corticosteroid Inhibition Assays in detail.
A series of separate in vivo Serum Corticosteroid Inhibition Assays were performed to identify ACTH analogs that inhibit ACTH adrenal hormone production in vivo. The serum corticosterone levels of dexamethasone-suppressed mice were measured as described in Example 2 after administration of (1) ACTH (corticosteroid-producing compound), (2) an ACTH analog (test compound) followed by subsequent administration of ACTH, (3) a combination of ACTH and the ACTH analog and (4) the ACTH analog alone.
The in vivo Serum Corticosteroid Inhibition Assay was performed according the following method. The ACTH analog test compounds, such as those showing low activities in Example 1, were tested for their abilities to inhibit adrenal hormone production induced by unmodified ACTH.
First, two to three month-old male FVB/N mice from our colony, five per group, were injected intraperitoneally with dexamethasone (0.4 mg/0.1 ml PBS per mouse; Sigma, St. Louis, Mo.) to suppress their endogenous ACTH production.
Second, ninety to one hundred twenty minutes later, animals were injected subcutaneously between the shoulder blades with wild type ACTH and/or test ACTH analog peptides (1 μg/0.1 mL PBS/0.5% BSA) or with vehicle alone (0.1 mL PBS/0.5% BSA). […]

[2] = target: T1, adrenal ACTH receptors such as MC-2R (explanted adrenal membrane) (Mus musculus, UniProt Q64326+Q9D159); test: in vitro Serum-free Adrenal Competitive Binding Assay (Example 3); conditions: cold peptide at 10 nM, 100 nM, 1000 nM; CPM; FIG. 3
T1 construct: the adrenal halves were macerated or otherwise dissociated using Dounce Homogenizer to form a membrane fraction; from tissue; host or cells: mouse adrenal glands (explanted, homogenised to a membrane fraction)
Description: ACTH analog compounds that bind to adrenal membrane with a greater affinity than endogenous unmodified ACTH, and are able to displace unmodified ACTH can be identified using an in vitro Serum-free Adrenal Competitive Binding Assay (Example 3). […] A higher CPM level indicates the presence of greater amounts of the radiolabelled compound. […] Column 220 indicates the level of radio-labeled unmodified mACTH(1-24) detected after combining the explanted adrenal membrane with only the radio-labeled mACTH(1-24) for 2 hours (no competitive binding). Columns 230, 240, and 250 show the results of competitive binding assays for binding of non-radio-labeled (“cold”) mACTH(1-24) to displace the radio-labeled mACTH(1-24) from the explanted adrenal membrane (measured in column 220) by competitive binding to receptors such as MC-2R on the adrenal membrane. […]
ACTH analogs with the ability to bind adrenal receptors with a greater affinity than compounds with known adrenal binding activity (preferably ACTH) can also be identified by performing an in vitro Adrenal Competitive Binding Assay, whereby measurement of the reduction in the amount of the radiolabelled adrenal-binding compound (e.g., ACTH) is measured at various concentrations of non-radio-labeled ACTH analog test compound in a medium containing explanted adrenal membrane. […]

[3] = cited from earlier work

T1 sequence (Q64326 whole entry): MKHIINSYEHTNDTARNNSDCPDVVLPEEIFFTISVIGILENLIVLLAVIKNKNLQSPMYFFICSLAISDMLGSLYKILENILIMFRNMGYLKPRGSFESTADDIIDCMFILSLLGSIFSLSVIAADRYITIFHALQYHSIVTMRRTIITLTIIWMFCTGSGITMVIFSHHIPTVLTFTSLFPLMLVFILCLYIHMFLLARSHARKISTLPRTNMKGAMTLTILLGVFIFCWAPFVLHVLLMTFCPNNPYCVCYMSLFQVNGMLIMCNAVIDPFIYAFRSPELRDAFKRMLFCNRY
T1 sequence (Q9D159 whole entry): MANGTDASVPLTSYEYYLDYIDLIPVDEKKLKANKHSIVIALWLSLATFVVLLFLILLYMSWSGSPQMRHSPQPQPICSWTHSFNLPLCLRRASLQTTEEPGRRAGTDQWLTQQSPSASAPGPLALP

Substance: N-Ser^1-Tyr-Ser-Met-Glu^5-His-Phe-Arg-Trp-Gly^10-Lys-Pro-Val-Gly-Lys^15-Lys-Arg-Arg-Pro-Val^20-Lys-Val-Tyr-Pro-Ac [mACTH(1-24), reference compound]
- serum corticosterone at 180 minutes [1]: 500 ± 76 ng/mL
- serum corticosterone at 180 minutes ([1]; listed as ACTH): 500 ± 76 ng/mL
- displacement of radio-labeled mACTH(1-24) from explanted adrenal membrane [2]: displacement of the radio-labeled mACTH(1-24)
- half life in blood [3]: less than 20 minutes
